The pIC50 is the IC50 on a negative log10 scale, so that one unit is a factor of ten. Low values mean a high IC50, high ones a low IC50. For orientation: clearance means the rate of elimination divided by the concentration. Lower therefore signals inefficient removal. Broadly, the bioavailability is the share of a dose that reaches the circulation, judged against a reference dose that is usually intravenous. Read a low bioavailability as poor availability. As usually defined, the AUC is concentration integrated over time.

In data set [1] the target is Glycogen synthase kinase-3 beta (Homo sapiens, UniProt P49841). In words: Inhibition of human GSK3-beta.
The nature of data set [2]: Total clearance in rat at 0.1 mg/kg, iv. Particulars: in vivo. It is filed as ADME, organism-based. The arrangement: dose 0.1 mg/kg, route intravenous.
For another data set, the system named is Rattus norvegicus. In words: Volume of distribution at steady state in rat […]. Type of data set: ADME, organism-based. The following applies: in vivo.
The target of data set [3] is Mast/stem cell growth factor receptor Kit (Homo sapiens, UniProt P10721). In words: Inhibition of cKit.
Data set [4] deals with Mitogen-activated protein kinase 8 (Homo sapiens, UniProt P45983). Put plainly: Inhibition of JNK1.
The target of data set [5] is Dual specificity mitogen-activated protein kinase kinase 1 (Homo sapiens, UniProt Q02750). In words: Inhibition of MEK1.
In data set [6] the target is Serine/threonine-protein kinase B-raf (Homo sapiens, UniProt P15056). In words: Inhibition of BRAF.
Data set [7] concerns the target Cyclin-dependent kinase 2 (Homo sapiens, UniProt P24941). Put plainly: Inhibition of CDK2.
Data set [8] has as its target Inhibitor of nuclear factor kappa-B kinase subunit beta (Homo sapiens, UniProt O14920). Put plainly: Inhibition of IKK-beta.
Data set [9] addresses Protein kinase C theta type (Homo sapiens, UniProt Q04759). In words: Inhibition of PKCtheta.
Data set [10] concerns the target Fibroblast growth factor receptor 3 (Homo sapiens, UniProt P22607). In words: Inhibition of FGFR3.
The nature of data set [11]: Inhibition of PKA expressed in Escherichia coli.
The nature of data set [12]: Oral bioavailability in rat at 1 mg/kg. Type of data set: ADME, organism-based. Particulars: in vivo.
Data set [13] concerns the target Hepatocyte growth factor receptor (Homo sapiens, UniProt P08581). In words: Inhibition of cMet.
Data set [14] addresses Receptor tyrosine-protein kinase erbB-2 (Homo sapiens, UniProt P04626). In words: Inhibition of HER2.
For data set [15], the target named is Proto-oncogene tyrosine-protein kinase Src (Homo sapiens, UniProt P12931). In words: Inhibition of SRC.
For data set [16], the target named is Mitogen-activated protein kinase 3 (Homo sapiens, UniProt P27361). In words: Inhibition of ERK1.
In a further data set the target is Aurora kinase B (Homo sapiens, UniProt Q96GD4). Put plainly: Inhibition of Aurora B.
Data set [17] concerns the target Mitogen-activated protein kinase 14 (Homo sapiens, UniProt Q16539). Put plainly: Inhibition of p38alpha.
Data set [18] has as its target Cyclin-dependent kinase 1 (Homo sapiens, UniProt P06493). Put plainly: Inhibition of CDK1.
For data set [19], the target named is Tyrosine-protein kinase Lck (Homo sapiens, UniProt P06239). In words: Inhibition of Lck.
In data set [20] the target is Mitogen-activated protein kinase kinase kinase 1 (Homo sapiens, UniProt Q13233). In words: Inhibition of MEKK1.
For data set [21], the target named is Cyclin-dependent kinase 5 (Homo sapiens, UniProt Q00535). Put plainly: Inhibition of CDK5.
For data set [22], the target named is Casein kinase I isoform delta (Homo sapiens, UniProt P48730). In words: Inhibition of CK1delta expressed in Escherichia coli.
The target in a further data set is Angiopoietin-1 receptor (Homo sapiens, UniProt Q02763). Put plainly: Inhibition of Tie2.
Data set [23] can be described thus: AUC in rat at 1 mg/kg, po. Type of data set: ADME, organism-based. The arrangement: dose 1 mg/kg, route oral. The following applies: plasma.
Data set [24] in a line: Inhibition of VEGFR.

pIC50: −log10 of the molar value.

Chain of Glycogen synthase kinase-3 beta (P49841 whole entry): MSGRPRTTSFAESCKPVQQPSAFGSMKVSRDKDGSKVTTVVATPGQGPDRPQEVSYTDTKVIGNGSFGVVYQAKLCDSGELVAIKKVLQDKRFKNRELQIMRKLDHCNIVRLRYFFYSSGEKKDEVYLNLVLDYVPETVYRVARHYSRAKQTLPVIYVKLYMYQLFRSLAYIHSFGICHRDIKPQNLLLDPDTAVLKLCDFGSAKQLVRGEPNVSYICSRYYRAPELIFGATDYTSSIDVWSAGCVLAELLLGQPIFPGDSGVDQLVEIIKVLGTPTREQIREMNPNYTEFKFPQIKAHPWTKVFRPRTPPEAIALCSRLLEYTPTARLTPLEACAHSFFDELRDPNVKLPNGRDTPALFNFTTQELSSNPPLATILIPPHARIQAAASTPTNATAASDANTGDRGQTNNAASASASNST
Chain of Mitogen-activated protein kinase 8 (P45983 whole entry): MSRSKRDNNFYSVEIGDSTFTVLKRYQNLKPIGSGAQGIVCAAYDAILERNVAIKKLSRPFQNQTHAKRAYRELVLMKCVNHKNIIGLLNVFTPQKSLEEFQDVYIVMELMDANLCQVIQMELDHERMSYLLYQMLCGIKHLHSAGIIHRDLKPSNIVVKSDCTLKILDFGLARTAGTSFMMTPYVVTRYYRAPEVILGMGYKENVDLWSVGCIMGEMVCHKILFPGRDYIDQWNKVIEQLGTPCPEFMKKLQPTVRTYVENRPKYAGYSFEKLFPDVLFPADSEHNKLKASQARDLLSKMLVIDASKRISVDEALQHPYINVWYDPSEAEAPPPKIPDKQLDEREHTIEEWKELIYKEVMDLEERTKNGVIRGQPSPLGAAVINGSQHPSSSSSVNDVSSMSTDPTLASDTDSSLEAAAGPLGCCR
Chain of Proto-oncogene tyrosine-protein kinase Src (P12931 2-536 limits assumed): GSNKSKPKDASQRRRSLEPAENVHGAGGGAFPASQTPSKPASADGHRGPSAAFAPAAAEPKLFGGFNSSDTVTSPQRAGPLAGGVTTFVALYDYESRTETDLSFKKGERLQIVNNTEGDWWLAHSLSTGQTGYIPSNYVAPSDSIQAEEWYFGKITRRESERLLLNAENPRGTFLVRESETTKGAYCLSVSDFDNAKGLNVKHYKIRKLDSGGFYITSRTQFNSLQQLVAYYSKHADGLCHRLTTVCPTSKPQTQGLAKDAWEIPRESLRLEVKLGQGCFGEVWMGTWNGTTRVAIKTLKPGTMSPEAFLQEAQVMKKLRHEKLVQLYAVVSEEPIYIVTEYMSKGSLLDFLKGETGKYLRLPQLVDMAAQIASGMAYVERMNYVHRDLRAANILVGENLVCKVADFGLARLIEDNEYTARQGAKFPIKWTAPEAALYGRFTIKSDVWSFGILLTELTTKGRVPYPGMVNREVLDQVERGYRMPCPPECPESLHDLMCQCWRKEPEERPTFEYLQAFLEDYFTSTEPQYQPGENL
Chain of Receptor tyrosine-protein kinase erbB-2 (P04626 whole entry): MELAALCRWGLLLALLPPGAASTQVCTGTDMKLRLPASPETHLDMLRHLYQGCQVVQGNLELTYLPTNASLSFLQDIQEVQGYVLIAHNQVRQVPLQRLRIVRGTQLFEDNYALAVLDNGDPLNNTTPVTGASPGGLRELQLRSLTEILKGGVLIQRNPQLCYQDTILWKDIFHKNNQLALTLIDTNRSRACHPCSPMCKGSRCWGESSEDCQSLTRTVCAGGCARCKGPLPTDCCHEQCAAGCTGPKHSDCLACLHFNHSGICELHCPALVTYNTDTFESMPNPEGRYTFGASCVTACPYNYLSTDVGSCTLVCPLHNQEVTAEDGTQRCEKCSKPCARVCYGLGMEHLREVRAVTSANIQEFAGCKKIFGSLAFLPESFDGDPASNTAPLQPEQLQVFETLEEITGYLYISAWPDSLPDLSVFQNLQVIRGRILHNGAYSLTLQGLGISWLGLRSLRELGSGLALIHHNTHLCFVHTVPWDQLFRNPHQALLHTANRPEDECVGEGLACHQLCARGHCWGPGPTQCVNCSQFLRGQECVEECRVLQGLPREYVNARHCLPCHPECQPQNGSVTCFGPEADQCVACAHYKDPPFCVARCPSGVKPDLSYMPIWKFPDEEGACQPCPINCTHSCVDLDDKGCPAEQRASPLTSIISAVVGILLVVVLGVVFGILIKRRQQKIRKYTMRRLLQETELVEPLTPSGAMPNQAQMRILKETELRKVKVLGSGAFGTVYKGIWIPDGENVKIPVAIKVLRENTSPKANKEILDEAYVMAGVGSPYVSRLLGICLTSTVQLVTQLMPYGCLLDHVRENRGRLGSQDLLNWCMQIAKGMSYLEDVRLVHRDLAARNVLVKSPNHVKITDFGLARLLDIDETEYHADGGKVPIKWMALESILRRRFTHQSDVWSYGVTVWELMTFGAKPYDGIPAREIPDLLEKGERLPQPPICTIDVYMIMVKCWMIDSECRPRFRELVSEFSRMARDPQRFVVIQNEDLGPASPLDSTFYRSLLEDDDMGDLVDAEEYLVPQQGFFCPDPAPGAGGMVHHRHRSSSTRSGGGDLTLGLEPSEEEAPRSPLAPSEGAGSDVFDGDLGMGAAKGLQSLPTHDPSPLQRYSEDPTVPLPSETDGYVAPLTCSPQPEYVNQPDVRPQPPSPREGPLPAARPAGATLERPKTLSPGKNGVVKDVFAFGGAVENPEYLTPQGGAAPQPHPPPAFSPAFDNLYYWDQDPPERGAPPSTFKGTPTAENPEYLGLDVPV
Chain of Casein kinase I isoform delta (P48730 whole entry, canonical isoform): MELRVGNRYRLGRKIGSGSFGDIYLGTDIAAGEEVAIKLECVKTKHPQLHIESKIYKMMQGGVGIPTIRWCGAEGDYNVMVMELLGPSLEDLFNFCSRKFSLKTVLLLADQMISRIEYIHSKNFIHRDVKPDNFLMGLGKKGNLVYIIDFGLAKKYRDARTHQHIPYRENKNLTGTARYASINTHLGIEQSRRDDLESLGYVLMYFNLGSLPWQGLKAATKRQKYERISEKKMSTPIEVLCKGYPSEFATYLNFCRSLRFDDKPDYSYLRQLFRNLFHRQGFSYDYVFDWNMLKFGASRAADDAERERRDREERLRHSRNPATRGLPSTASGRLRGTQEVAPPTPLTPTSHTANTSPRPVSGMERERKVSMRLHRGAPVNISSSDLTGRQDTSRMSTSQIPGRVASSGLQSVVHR
Chain of Protein kinase C theta type (Q04759 whole entry): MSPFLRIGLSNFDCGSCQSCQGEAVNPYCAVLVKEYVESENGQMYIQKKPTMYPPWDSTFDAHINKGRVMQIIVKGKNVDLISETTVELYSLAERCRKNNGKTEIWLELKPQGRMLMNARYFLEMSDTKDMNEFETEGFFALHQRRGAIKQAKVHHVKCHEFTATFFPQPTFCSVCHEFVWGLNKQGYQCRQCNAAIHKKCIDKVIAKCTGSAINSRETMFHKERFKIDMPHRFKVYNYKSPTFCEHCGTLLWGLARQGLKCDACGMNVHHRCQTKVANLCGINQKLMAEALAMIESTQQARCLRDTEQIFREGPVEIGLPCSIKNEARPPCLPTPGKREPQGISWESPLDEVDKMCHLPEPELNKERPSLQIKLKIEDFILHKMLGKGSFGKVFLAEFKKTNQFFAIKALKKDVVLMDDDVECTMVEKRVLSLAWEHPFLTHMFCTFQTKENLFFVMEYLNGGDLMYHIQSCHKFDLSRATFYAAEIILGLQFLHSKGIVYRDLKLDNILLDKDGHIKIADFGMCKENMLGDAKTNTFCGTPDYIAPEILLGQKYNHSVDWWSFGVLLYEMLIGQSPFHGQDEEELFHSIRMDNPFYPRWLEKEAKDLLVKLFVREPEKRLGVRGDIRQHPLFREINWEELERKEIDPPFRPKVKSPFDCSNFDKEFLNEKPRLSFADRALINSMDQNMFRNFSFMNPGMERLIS
Chain of Serine/threonine-protein kinase B-raf (P15056 whole entry): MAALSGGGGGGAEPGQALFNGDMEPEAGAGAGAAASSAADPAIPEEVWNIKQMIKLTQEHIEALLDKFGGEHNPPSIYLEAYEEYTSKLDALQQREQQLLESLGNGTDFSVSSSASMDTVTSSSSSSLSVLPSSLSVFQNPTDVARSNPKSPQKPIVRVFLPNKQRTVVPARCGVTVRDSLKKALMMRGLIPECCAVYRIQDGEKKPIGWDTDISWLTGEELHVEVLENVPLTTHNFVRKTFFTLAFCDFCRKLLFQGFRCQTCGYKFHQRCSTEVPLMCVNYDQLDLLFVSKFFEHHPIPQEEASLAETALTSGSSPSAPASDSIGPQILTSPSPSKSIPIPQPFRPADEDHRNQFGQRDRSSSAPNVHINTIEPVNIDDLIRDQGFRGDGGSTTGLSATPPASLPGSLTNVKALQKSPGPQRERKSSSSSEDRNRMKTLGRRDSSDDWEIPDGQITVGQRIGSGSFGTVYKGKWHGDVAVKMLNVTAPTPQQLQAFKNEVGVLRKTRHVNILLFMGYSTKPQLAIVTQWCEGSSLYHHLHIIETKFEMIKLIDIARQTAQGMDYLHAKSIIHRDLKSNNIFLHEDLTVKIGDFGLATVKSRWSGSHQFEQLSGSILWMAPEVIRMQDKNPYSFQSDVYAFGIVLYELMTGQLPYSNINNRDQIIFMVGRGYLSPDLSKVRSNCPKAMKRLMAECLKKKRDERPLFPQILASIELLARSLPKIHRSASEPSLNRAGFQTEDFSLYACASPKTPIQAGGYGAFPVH
Chain of Aurora kinase B (Q96GD4 whole entry): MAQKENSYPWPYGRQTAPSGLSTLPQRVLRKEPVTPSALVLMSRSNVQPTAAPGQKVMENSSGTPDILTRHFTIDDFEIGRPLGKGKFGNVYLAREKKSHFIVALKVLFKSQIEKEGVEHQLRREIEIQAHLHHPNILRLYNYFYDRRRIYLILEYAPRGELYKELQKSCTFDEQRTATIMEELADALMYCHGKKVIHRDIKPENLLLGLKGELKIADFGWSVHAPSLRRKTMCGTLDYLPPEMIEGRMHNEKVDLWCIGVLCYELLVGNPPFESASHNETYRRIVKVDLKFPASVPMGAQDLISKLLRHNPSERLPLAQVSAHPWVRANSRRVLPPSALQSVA

`COc1ccc(CSc2nnc(-c3ccc4c(c3)CCO4)o2)cc1C#N` showed a pIC50 in data set [1] of 7.55.

For the compound `COc1ccc(CSc2nnc(-c3ccc4ncccc4c3)o2)cc1C(F)(F)F`, in data set [1], the pIC50 was 7.74.

On to `O=[N+]([O-])c1ccc(NCCNc2ncc(-c3ncc[nH]3)c(-c3ccc(Cl)cc3Cl)n2)nc1`, for which the pIC50 in data set [1] is 8.00.

As for `COc1ccc(CSc2nnc(-c3ccc4ncsc4c3)o2)cc1C(F)(F)F`, in [1], the pIC50 was 8.51.

For the compound `Clc1cccc(CSc2nnc(-c3ccc4c(c3)CCO4)o2)c1`, in [1], the pIC50 was 7.03.

Consider `FC(F)(F)c1cccc(CSc2nnc(-c3ccc4c(c3)CCO4)o2)c1`, for which, in [1], the pIC50 was 7.17.

With `COc1ccc(CSc2nnc(-c3ccc4c(c3)CCO4)o2)cc1C(F)(F)F`, the pIC50 in data set [1] is 8.24. Compared with the last compound, the pIC50 is 1.07 log units higher.

The compound `COc1ccc(-c2coc3ccc(-c4nnc(SCc5ccc(OC)c(C(F)(F)F)c5)o4)cc23)cc1` had a pIC50 in data set [1] of 7.60.

The compound `Fc1cccc(CCc2nnc(-c3ccc4c(c3)CCO4)o2)c1` showed a pIC50 in data set [1] of 6.47.

For `Clc1ccccc1CSc1nnc(-c2ccc3c(c2)CCO3)o1`, in data set [1], the pIC50 was 6.70. Against the preceding compound, the pIC50 is 0.23 log units higher.

With `Cn1cnc2ccc(-c3nnc(SCc4cccc(C(F)(F)F)c4)o3)cc21`, in data set [1], the negative logarithm of the IC50 (pIC50) was 8.03. Compared with the last compound, the pIC50 is 1.33 log units higher.

In turn, `Fc1cccc(CSc2nnc(-c3ccc4c(c3)CCO4)o2)c1` showed a negative-log IC50 (pIC50) in data set [1] of 7.27.

Consider `COC(=O)c1cccc(CSc2nnc(-c3ccc4c(c3)CCO4)o2)c1`, for which, in data set [1], the negative-log IC50 (pIC50) is 6.20.

For `COc1ccc(-n2cnc3ccc(-c4nnc(SCc5cccc(C(F)(F)F)c5)o4)cc32)cc1`, the pIC50 in data set [1] was 8.60.

Compound `COc1ccc(CSc2nnc(-c3ccc4c(c3)CCO4)o2)cc1Cl` showed a negative-log IC50 (pIC50) in data set [1] of 7.89.

`Fc1cccc(COc2nnc(-c3ccc4c(c3)CCO4)o2)c1` showed a negative logarithm of the IC50 (pIC50) in [1] of less than 5.00.

The compound `c1ccc(CSc2nnc(-c3ccc4c(c3)CCO4)o2)cc1` gave a pIC50 in data set [1] of 6.68.

`Clc1ccc(CSc2nnc(-c3ccc4c(c3)CCO4)o2)cc1` showed a negative-log IC50 (pIC50) in [1] of 6.55.

The compound `COc1ccc(-c2coc3ccc(-c4nnc(SCc5cccc(C#N)c5)o4)cc23)cc1` showed a pIC50 in data set [1] of 8.46.

`Fc1cccc(CNc2nnc(-c3ccc4c(c3)CCO4)o2)c1` showed a pIC50 in [1] of 6.48.

Regarding `N#Cc1cccc(CSc2nnc(-c3ccc4c(c3)CCO4)o2)c1`, the negative logarithm of the IC50 (pIC50) in data set [1] is 7.04.

Take `Fc1cccc(SCc2nnc(-c3ccc4c(c3)CCO4)o2)c1`: the pIC50 in data set [1] is 6.17.

Regarding `COc1ccc(CSc2nnc(-c3ccc4c(c3)CCO4)o2)cc1F`, in [1], the pIC50 was 7.36.

`COc1ccc(-n2cnc3ccc(-c4nnc(SCc5cccc(C#N)c5)o4)cc32)cc1` showed a clearance in data set [2] of 35.6 mL/min/kg. Moreover, the negative-log IC50 (pIC50) is 8.64 in [1]; less than 5.00 in [3]; less than 5.00 in data set [4]; less than 5.00 in data set [5]; less than 5.00 in data set [6]; less than 5.00 in [7]. Besides, the pIC50 in data set [8] was less than 5.00; in data set [9], 5.46; in data set [10] it was less than 5.00; in data set [11], less than 5.00; in data set [13], less than 5.00; in data set [14] it was less than 5.00. Also, the pIC50 in [15] was less than 5.00; in data set [16], less than 5.00; at Aurora kinase B it was less than 5.00; in data set [17], less than 5.00; in [18], 5.34; in data set [19], less than 5.00. The pIC50 in data set [20] is 5.09; in [21], less than 5.00; in data set [22], less than 5.00; against Angiopoietin-1 receptor it was less than 5.00; in data set [24] it was less than 5.00. Moreover, the Vdss with Rattus norvegicus is 1.453 L/kg. Moreover, in data set [12], the bioavailability came to 1.7%. This compound also returned an AUC in data set [23] of 7.9 ng·h/mL.

On to `COc1ccc(CSc2nnc(-c3ccc4[nH]ncc4c3)o2)cc1C(F)(F)F`, for which the negative logarithm of the IC50 (pIC50) in data set [1] is 7.80.

In [1], `COc1ccc(-n2cnc3ccc(-c4nnc(SCc5ccc(OC)c(C(F)(F)F)c5)o4)cc32)cc1` had a negative logarithm of the IC50 (pIC50) of 8.07.

The compound `COc1ccc(CSc2nnc(-c3ccc4occc4c3)o2)cc1C(F)(F)F` showed a negative-log IC50 (pIC50) in data set [1] of 8.31.

Compound `COc1ccc(CSc2nnc(-c3ccc4c(c3)CCO4)o2)cc1` had a negative-log IC50 (pIC50) in data set [1] of 6.66.

In the case of `COc1ccc(-c2coc3ccc(-c4nnc(SCc5cccc(C(F)(F)F)c5)o4)cc23)cc1`, the pIC50 in data set [1] is 8.08.

The record behind these values is ChEMBL document CHEMBL1152750, “Design, synthesis and structure-activity relationships of 1,3,4-oxadiazole derivatives as novel inhibitors of glycogen synthase kinase-3beta” (Bioorg Med Chem, 2009).
